molecular target: T1, hSARM1 (Homo sapiens, UniProt Q6SZW1); assay: ARM-SAM-TIR SARM1 IC50 Assay (NADase activity, NAD+ cleavage, RapidFire MS); type: biochemical; details: ARM-SAM-TIR lysate 5 μg/mL, 2 hrs. pre-incubation with compound, 5 μM NAD+, 2 hrs. incubation
T1 construct: This assay makes use of full length SARM1, which encompasses the ARM, SAM and TIR domains; made in house; host or cells: NRK1-HEK293T cells (transient transfection; cleared lysate used as enzyme)
T1 sequence (Q6SZW1 28-724): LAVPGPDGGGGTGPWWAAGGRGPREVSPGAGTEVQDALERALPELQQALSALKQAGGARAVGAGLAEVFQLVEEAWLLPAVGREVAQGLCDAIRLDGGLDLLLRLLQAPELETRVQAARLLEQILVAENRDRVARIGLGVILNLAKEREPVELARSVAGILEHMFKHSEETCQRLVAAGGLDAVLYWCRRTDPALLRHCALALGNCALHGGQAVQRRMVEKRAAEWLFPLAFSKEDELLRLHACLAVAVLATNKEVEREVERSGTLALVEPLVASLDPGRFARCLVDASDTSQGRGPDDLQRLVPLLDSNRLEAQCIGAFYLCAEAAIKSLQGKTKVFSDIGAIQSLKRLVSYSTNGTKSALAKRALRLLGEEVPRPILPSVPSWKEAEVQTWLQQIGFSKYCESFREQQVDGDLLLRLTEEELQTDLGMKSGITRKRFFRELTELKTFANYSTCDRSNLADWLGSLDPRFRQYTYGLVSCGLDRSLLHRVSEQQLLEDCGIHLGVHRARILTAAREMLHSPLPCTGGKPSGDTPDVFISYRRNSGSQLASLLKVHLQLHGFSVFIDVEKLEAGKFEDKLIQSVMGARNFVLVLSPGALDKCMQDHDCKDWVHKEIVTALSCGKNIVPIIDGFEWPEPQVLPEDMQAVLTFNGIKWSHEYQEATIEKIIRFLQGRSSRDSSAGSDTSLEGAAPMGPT
Protocol: This describes an assay of ARM-SAM-TIR NADase activity and use of this assay to measure the efficacy of compounds of the present invention to block SARM1 mediated NAD+ cleavage. This assay was optimized in such a way as to characterize the efficacy of the compounds of the present invention to inhibit SARM1 activity and to calculate an IC50 value for each compound. This assay makes use of full length SARM1, which encompasses the ARM, SAM and TIR domains.
NRK1-HEK293T cells were seeded onto 150 cm^2 plates at 20×10^6 cells per plate. The next day, the cells were transfected with 15 μg ARM-SAM-TIR expression plasmid (SEQ ID NO: 1 as disclosed in WO 2019/236879, Pages 77-81; Paragraph) [0310]).
The cultures were supplemented with 1 mM NR at time of transfection to minimize toxicity from ARM-SAM-TIR overexpression. Forty-eight hours after transfection, cells were harvested, pelleted by centrifugation at 1,000 rpm (Sorvall ST 16R centrifuge, Thermo Fisher), and washed once with cold PBS (0.01 M phosphate buffered saline NaCl 0.138 M; KCl 0.0027 M; pH 7.4). The cells were resuspended in PBS with protease inhibitors (Complete™ protease inhibitor cocktail, Roche product #11873580001) and cell lysates were prepared by sonication (Branson Sonifer 450, output=3, 20 episodes of stroke). The lysates were centrifuged (12,000×g for 10 min at 4° C.) to remove cell debris and the supernatants (containing ARM-SAM-TIR protein) were stored at −80° C. for later use in the in vitro ARM-SAM-TIR NADase assay (see below). Protein concentration was determined by the Bicinchoninic (BCA) method and used to normalize lysate concentrations.
The enzymatic assay was performed in a 384-well polypropylene plate in Dulbecco's PBS buffer in a final assay volume of 20 μL. ARM-SAM-TIR lysate with a final concentration of 5 μg/mL was pre-incubated with the respective compound at 1% DMSO final assay concentration over 2 hrs. at room temperature. The reaction was initiated by addition of 5 μM final assay concentration of NAD+ as substrate. After a 2 hrs. ambient temperature incubation, the reaction was terminated with 40 μL of stop solution of 7.5% trichloroacetic acid in acetonitrile. The NAD+ and ADPR concentrations were analyzed by a RapidFire High Throughput Mass Spectrometry System (Agilent Technologies, Santa Clara, CA) using an API4000 triple quadrupole mass spectrometer (AB Sciex Framingham, MA).
Compounds having an activity designated as “A” provided an IC50<50 nM; compounds having an activity designated as “B” provided an IC50 51-100 nM; compounds having an activity designated as “C” provided an IC50 101-500 nM; compounds having an activity designated as “D” provided an IC50 501-1000 nM; compounds having an activity designated as “E” provided an IC50>1000 nM.

Compound | IC50
O=C(CCc1ccc(Cl)nc1)Nc1[nH]nc2c1c(=O)[nH]c1cnccc12 [Example 1, 3-(6-Chloropyridin-3-yl)-N-(4-oxo-4,5-dihydro-2H-pyrazolo[4,3-c][1,7]naphthyridin-3-yl)propanamide] | 101 to 500 nM
O=C(CCc1ccc(F)nc1)Nc1[nH]nc2c1c(=O)[nH]c1cnccc12 [Example 2, 3-(6-Fluoropyridin-3-y1)-N-(4-oxo-4,5-dihydro-2H-pyrazolo[4,3-c][1,7]naphthyridin-3-yl)propanamide] | 101 to 500 nM
O=C(CCc1ccc(Cl)cc1)Nc1[nH]nc2c1c(=O)[nH]c1cnccc12 [Example 3, 3-(4-Chlorophenyl)-N-(4-oxo-4,5-dihydro-2H-pyrazolo[4,3-c][1,7]naphthyridin-3-yl)propanamide] | < 50 nM
O=C(CCc1ccc(Cl)c(F)c1)Nc1[nH]nc2c1c(=O)[nH]c1cnccc12 [Example 4, 3-(4-Chloro-3-fluorophenyl)-N-(4-oxo-4,5-dihydro-2H-pyrazolo[4,3-c][1,7]naphthyridin-3-yl)propanamide] | < 50 nM
O=C(CCc1cnc(Cl)c(F)c1)Nc1[nH]nc2c1c(=O)[nH]c1cnccc12 [Example 5, 3-(6-Chloro-5-fluoro-3-pyridyl)-N-(4-oxo-2,5-dihydropyrazolo[4,3-c][1,7]naphthyridin-3-y1)propanamide] | 51 to 100 nM
O=C(CCc1ccc(F)c(F)c1)Nc1[nH]nc2c1c(=O)[nH]c1cnccc12 [Example 6, 3-(3,4-Difluorophenyl)-N-(4-oxo-4,5-dihydro-2H-pyrazolo[4,3-c][1,7]naphthyridin-3-yl)propanamide] | < 50 nM
NC(=O)c1c(-c2ccncc2)n[nH]c1NC(=O)CCc1ccc(Cl)c(Cl)c1 [Example 7, 5-(3-(3,4-Dichlorophenyl)propanamido)-3-(pyridin-4-yl)-1H-pyrazole-4-carboxamide] | 51 to 100 nM
NC(=O)c1c(-c2ccncc2)n[nH]c1NC(=O)CCc1ccc(F)c(F)c1 [Example 8, 5-(3-(3,4-Difluorophenyl)propanamido)-3-(pyridin-4-y1)-1H-pyrazole-4-carboxamide] | 101 to 500 nM
NC(=O)c1c(-c2ccncc2)n[nH]c1NC(=O)CCc1ccc(Cl)nc1 [Example 9, 5-(3-(6-Chloropyridin-3-yl)propanamido)-3-(pyridin-4-y1)-1H-pyrazole-4-carboxamide] | 101 to 500 nM
NC(=O)c1c(-c2ccncc2)n[nH]c1NC(=O)CCc1ccc(F)cc1 [Example 10, 5-(3-(4-Fluorophenyl)propanamido)-3-(pyridin-4-yl)-1H-pyrazole-4-carboxamide] | 101 to 500 nM
NC(=O)c1c(-c2ccncc2)n[nH]c1NC(=O)CCc1cc(F)cc(F)c1 [Example 11, 5-(3-(3,5-Difluorophenyl)propanamido)-3-(pyridin-4-y1)-1H-pyrazole-4-carboxamide-] | 501 to 1000 nM
NC(=O)c1c(-c2ccncc2)n[nH]c1NC(=O)CCc1cnc(Cl)c(F)c1 [Example 12, 5-(3-(6-Chloro-5-fluoropyridin-3-yl)propanamido)-3-(pyridin-4-yl)-1H-pyrazole-4-carboxamide] | 101 to 500 nM
NC(=O)c1c(-c2ccncc2)n[nH]c1NC(=O)CCc1ccc(Cl)cc1 [Example 13, 5-(3-(4-Chlorophenyl)propanamido)-3-(pyridin-4-yl)-1H-pyrazole-4-carboxamide] | < 50 nM
NC(=O)c1c(-c2ccncc2)n[nH]c1NC(=O)CCc1ccc(Cl)c(F)c1 [Example 14, 5-(3-(4-Chloro-3-fluorophenyl)propanamido)-3-(pyridin-4-yl)-1H-pyrazole-4-carboxamide] | < 50 nM
NC(=O)c1c(-c2ccncc2)n[nH]c1NC(=O)CCc1ccc(Cl)s1 [Example 15, 5-(3-(5-Chlorothiophen-2-yl)propanamido)-3-(pyridin-4-y1)-1H-pyrazole-4-carboxamide] | 101 to 500 nM
Cc1cnncc1-c1n[nH]c(NC(=O)CCc2ccc(F)nc2)c1C(N)=O [Example 16, 5-(3-(6-Fluoropyridin-3-yl)propanamido)-3-(5-methylpyridazin-4-yl)-1H-pyrazole-4-carboxamide] | > 1000 nM
Cc1cnncc1-c1n[nH]c(NC(=O)CCc2ccc(Cl)c(F)c2)c1C(N)=O [Example 17, 5-(3-(4-Chloro-3-fluorophenyl)propanamido)-3-(5-methylpyridazin-4-y1)-1H-pyrazole-4-carboxamide] | 501 to 1000 nM
CNC(=O)c1c(-c2ccnnc2)n[nH]c1NC(=O)CCc1ccc(F)nc1 [Example 18, 5-(3-(6-Fluoropyridin-3-yl)propanamido)-N-methyl-3-(pyridazin-4-y1)-1H-pyrazole-4-carboxamide] | > 1000 nM
NC(=O)c1c(-c2ccnnc2)n[nH]c1NC(=O)CCc1ccc(F)nc1 [Example 19, 5-(3-(6-Fluoropyridin-3-yl)propanamido)-3-(pyridazin-4-yl)-1H-pyrazole-4-carboxamide] | > 1000 nM
NC(=O)c1c(-c2ccnnc2)n[nH]c1NC(=O)CCc1cnc(Cl)c(F)c1 [Example 20, 5-(3-(6-Chloro-5-fluoropyridin-3-yl)propanamido)-3-(pyridazin-4-y1)-1H-pyrazole-4-carboxamide] | 101 to 500 nM
NC(=O)c1c(-c2ccnnc2)n[nH]c1NC(=O)CCc1ccc(Cl)c(F)c1 [Example 21, 5-(3-(4-Chloro-3-fluorophenyl)propanamido)-3-(pyridazin-4-yl)-1H-pyrazole-4-carboxamide] | 51 to 100 nM
NC(=O)c1c(-c2ccncc2)n[nH]c1NC(=O)CCc1ccc(F)nc1 [Example 22, 5-(3-(6-Fluoropyridin-3-yl)propanamido)-3-(pyridin-4-yl)-1H-pyrazole-4-carboxamide] | 501 to 1000 nM
NC(=O)c1c(-c2ccncc2)n[nH]c1NC(=O)CCc1ccc(C(F)(F)F)cc1 [Example 23, 3-(Pyridin-4-y1)-5-(3-(4-(trifluoromethyl)phenyl)propanamido)-1H-pyrazole-4-carboxamide] | 101 to 500 nM
CNC(=O)c1c(-c2ccncc2)n[nH]c1NC(=O)CCc1ccc(Cl)cc1 [Example 24, 3-(3-(4-chlorophenyl)propanamido)-N-methyl-5-(pyridin-4-yl)-1H-pyrazole-4-carboxamide] | 101 to 500 nM
O=C1NCN(C(=O)CCc2ccc(Cl)cc2)c2[nH]nc(-c3ccncc3)c21 [Example 25, 7-(3-(4-Chlorophenyl)propanoyl)-3-(pyridin-4-yl)-1,5,6,7-tetrahydro-4H-pyrazolo[3,4-d]pyrimidin-4-one] | 101 to 500 nM
O=C1NCN(C(=O)CCc2ccc(Cl)c(F)c2)c2[nH]nc(-c3ccncc3)c21 [Example 26, 7-(3-(4-Chloro-3-fluorophenyl)propanoy1)-3-(pyridin-4-y1)-1,5,6,7-tetrahydro-4H-pyrazolo[3,4-d]pyrimidin-4-one] | 101 to 500 nM
O=C1NCN(C(=O)CCc2cnc(Cl)c(F)c2)c2[nH]nc(-c3ccncc3)c21 [Example 27, 7-(3-(6-Chloro-5-fluoropyridin-3-y1)propanoyl)-3-(pyridin-4-y1)-1,5,6,7-tetrahydro-4H-pyrazolo[3,4-d]pyrimidin-4-one] | > 1000 nM
